Measured values published in US12502440B2, “Cross-linking compounds and methods of use thereof” (North Carolina State University, priority 2019, dated 2025).
Several values for one entry are separate records, joined by “and”; a condition that tells them apart may be missing. Equal values may be shown once.

Legend:
Assay type in all cases: biochemical
[1] = test system: β-glucosidase from almonds; assay: Indigogenic reaction with β-glucosidase from almonds
rat liver homogenate = assay: Indigoid-dye formation in rat liver homogenate; conditions: indoxyl 1 mM in rat liver homogenate, 5% DMF, 37° C., 24 h; ε = 1.27 × 10^4 M^−1 cm^−1 measured for 4
Procedure: Finally, indigoid-dye formation was carried out in rat liver homogenate (Table 1, rightmost column).
Reactions in rat liver homogenate. An indoxyl compound in DMF (5 μL, 20 mM) was mixed with rat liver homogenate (95 μL). The reaction mixture was incubated at 37° C. for 24 h. After allowing to cool to room temperature, the reaction mixture was diluted with DMF (900 μL). The mixture was heated at 70° C. for 2 min and then centrifuged for 2 min. The supernatant was separated from any precipitate. This extraction procedure was repeated two or three times with DMF (100-500 μL). The combined supernatant (1500-1800 μL) was analyzed by absorption spectroscopy.

[2] = biological target: T1, β-glucosidase from Agrobacterium (Agrobacterium sp., UniProt P12614); assay: Indigogenic reaction with β-glucosidase from Agrobacterium
T1 construct: purchased Megazyme
T1 sequence (P12614 1-459): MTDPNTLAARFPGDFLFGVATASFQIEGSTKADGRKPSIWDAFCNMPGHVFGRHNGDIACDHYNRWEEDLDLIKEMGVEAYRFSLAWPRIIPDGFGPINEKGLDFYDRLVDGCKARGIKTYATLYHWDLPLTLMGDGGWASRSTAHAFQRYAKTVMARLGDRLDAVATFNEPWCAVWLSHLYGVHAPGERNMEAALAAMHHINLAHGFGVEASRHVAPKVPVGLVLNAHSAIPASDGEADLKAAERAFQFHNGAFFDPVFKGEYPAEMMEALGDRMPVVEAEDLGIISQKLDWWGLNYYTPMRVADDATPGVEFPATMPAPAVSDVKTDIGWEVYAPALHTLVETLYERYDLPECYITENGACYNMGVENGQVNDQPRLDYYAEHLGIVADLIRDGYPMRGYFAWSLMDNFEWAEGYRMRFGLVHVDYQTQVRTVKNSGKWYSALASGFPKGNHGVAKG
Procedure: Next, the β-glucosidase from Agrobacterium sp. was investigated as the trigger enzyme for indigoid dye formation. […] The reaction was carried out using the enzyme (200 nM) and indoxyl-glucoside 33 (100 μM) in phosphate buffer (pH 4-9, containing 2% DMF) at 37° C. […] Note that with 200 nM enzyme and 100 μM substrate, complete reaction requires 500 turnovers of each enzyme.
Reactions with β-glucosidase from Agrobacterium. An indoxyl compound in DMF (2 μL, 5 mM) and β-glucosidase from Agrobacterium in 10 mM phosphate buffer [2 μL, 10 μM, pH 7.0, containing 50 mM NaCl and 0.6 M (NH4)2SO4] were mixed with 50 mM phosphate buffer (96 μL, pH 7.0). The reaction mixture was incubated at 37° C. for 2 h and then centrifuged for 3 min. Any precipitate was separated from the supernatant and dissolved in DMF (200 μL). The resulting solution was analyzed by absorption spectroscopy. The experiment was repeated three times.

[3] = indoxyl 1 mM, enzyme 1 unit/mL, 0.01M acetate buffer pH 5, 5% DMF, 37° C., 16-19 h, ε = 1.27 × 10^4 M^−1 cm^−1 measured for 4
[4] = indoxyl 100 μM, enzyme 200 nM, 0.05M phosphate buffer pH 7.0, 2% DMF, 37° C., 2 h, three repeats, ε = 1.27 × 10^4 M^−1 cm^−1 measured for 4
[5] = as E4 but ε measured for 43 (footnote g)
[6] = as E1 but ε measured for 43 (footnote g)

| Compound | Yield (%) of indigoid dye, β-glucosidase from almonds [1, 3] | Yield (%) of indigoid dye, rat liver homogenate (rat liver homogenate) | Yield (%) of indigoid dye, β-glucosidase from almonds ([1]; as E1 but ε = 2.00 × 10^4 M^−1 cm^−1 reported for 5,5′-dibromo-4,4′-dichloroindigo (footnote e)) | Yield (%) of indigoid dye, β-glucosidase from Agrobacterium ([2]; as E4 but ε = 2.00 × 10^4 M^−1 cm^−1 reported for 5,5′-dibromo-4,4′-dichloroindigo (footnote e)) | Yield (%) of indigoid dye, β-glucosidase from Agrobacterium [2, 4] | Yield (%) of indigoid dye, β-glucosidase from Agrobacterium [2, 5] | Yield (%) of indigoid dye, β-glucosidase from almonds [1, 6] |
| --- | --- | --- | --- | --- | --- | --- | --- |
| 5-[(Benzylcarbamoyl)oxy)]-1H-indole-3-yl β-D-glucopyranoside [compound 16] | 24% | 9% | – | – | – | – | – |
| 5-bromo-4-chloroindoxyl β-glucoside [compound 42, reference compound] | – | 65% | 74% and 74^e % | 116% and 116 ± 8^e % | – | – | – |
| COc1nc(Oc2ccc3[nH]cc(O[C@@H]4O[C@H](CO)[C@@H](O)[C@H](O)[C@H]4O)c3c2)nc(N2CCOCC2)n1 [compound 19, 5-[(4-Methoxy-6-morpholino-1,3,5-triazin-2-yl)oxy]-1H-indole-3-yl β-D-glucopyranoside] | <1% | <5% | – | – | 46 + 5% | – | – |
| COc1nc(Oc2ccc3[nH]cc(O[C@@H]4O[C@H](CO)[C@@H](O)[C@H](O)[C@H]4O)c3c2Br)nc(N2CCOCC2)n1 [compound 20, 4-Bromo-5-[(4-methoxy-6-morpholino-1,3,5-triazin-2-yl)oxy]-1H-indole-3-yl β-D-glucopyranoside] | – | <5% | – | – | 150 ± 3% | – | – |
| COc1nc(Oc2c(Br)cc3[nH]cc(O[C@@H]4O[C@H](CO)[C@@H](O)[C@H](O)[C@H]4O)c3c2Br)nc(N2CCOCC2)n1 [compound 21, 4,6-Dibromo-5-[(4-methoxy-6-morpholino-1,3,5-triazin-2-yl)oxy]-1H-indole-3-yl β-D-glucopyranoside] | – | <5% | – | – | 63 ± 4% | 31 ± 2% | – |
| COC(=O)COc1ccc2[nH]cc(OC3O[C@H](CO)[C@@H](O)[C@H](O)[C@H]3O)c2c1 (stereo partly drawn) [compound 22, 5-(Methoxycarbonyl)methoxy-1H-indol-3-yl-D-glucopyranoside] | <1% | <5% | – | – | 30 ± 6% | – | – |
| COC(=O)COc1ccc2[nH]cc(O[C@@H]3O[C@H](CO)[C@@H](O)[C@H](O)[C@H]3O)c2c1Br [compound 23, 4-Bromo-5-(methoxycarbonyl)methoxy-1H-indol-3-yl β-D-glucopyranoside] | 68% | <5% | – | – | 84 ± 4% | – | – |
| COC(=O)COc1c(Br)cc2[nH]cc(O[C@@H]3O[C@H](CO)[C@@H](O)[C@H](O)[C@H]3O)c2c1Br [compound 24, 4,6-Dibromo-5-(methoxycarbonyl)methoxy-1H-indol-3-yl β-D-glucopyranoside] | 122% | <5% | – | – | 209 ± 6% | 102 + 3% | 59% |
| C#CCOc1ccc2[nH]cc(O[C@@H]3O[C@H](CO)[C@@H](O)[C@H](O)[C@H]3O)c2c1 [compound 25, 5-Propargyloxy-1H-indol-3-yl β-D-glucopyranoside] | <5% | 11% | – | – | 37 ± 2% | – | – |
| C#CCOc1ccc2[nH]cc(O[C@@H]3O[C@H](CO)[C@@H](O)[C@H](O)[C@H]3O)c2c1Br [compound 26, 4-Bromo-5-propargyloxy-1H-indol-3-yl β-D-glucopyranoside] | 56% | 17% | – | – | 79 ± 1% | – | – |
| C#CCOc1c(Br)cc2[nH]cc(O[C@@H]3O[C@H](CO)[C@@H](O)[C@H](O)[C@H]3O)c2c1Br [compound 27, 4,6-Dibromo-5-propargyloxy-1H-indol-3-yl β-D-glucopyranoside] | 105% | 50% | – | – | 184 ± 3% | 89 ± 2% | 51% |
| OC[C@H]1O[C@@H](Oc2c[nH]c3cc(Br)c(OC[C@@H]4[C@@H]5CCC#CCC[C@@H]54)c(Br)c23)[C@H](O)[C@@H](O)[C@@H]1O [compound 30, 5-{[(1R,8S,9s)-Bicyclo[6.1.0]non-4-yn-9-yl]methoxy}-4,6-dibromo-1H-indole-3-yl β-D-glucopyranoside] | – | – | – | – | 21 ± 1% | 10% and 10 ± 0.4% | – |
